Tests used:
1014 cells = assay: 1014 cell growth for 7 days monitored by IncuCyte; type: cell-based, mouse; conditions: in vitro
WM1366-iCas9 xenograft = WM1366-iCas9 xenograft tumor growth in Nu/J mice; type: in vivo, mouse; conditions: trametinib-containing chow (0.3 ppm) compared with control chow
From the text: FIG. 13A-13D: PDPK1 depletion delayed xenograft tumor growth in Nu/J mice, in accordance with some embodiments. FIG. 13A, Tumor growth of WM1366-iCas9 and PDPK1 knockout (KO) cells, represented as the change in volume (mm^3) over time, was shown from the start of injection to the start of treatment as indicated. Cyan dots indicated sacrifice of mice due to lack of visible tumors. The dotted line at 50 mm^3 indicates the size at which trametinib treatment was started. FIG. 13B: Time for tumor growth of WM1366-iCas9 cells to the start of treatment in male and female mice. Lines represent median number of days from the time of tumor implantation to the treatment size of 50 mm^3. The mouse without tumor formation was monitored for 105 days. p values were calculated with an unpaired two-tailed t test. […] FIG. 13D: Kaplan-Meier survival curves of WM1366-iCas9 tumor-bearing in female or male mice as indicated. p values were calculated by GraphPad Prism 9.0 with Log-rank (Mantel-Cox) test. n.s., not significant.
Animal experiments were performed at Thomas Jefferson University in a facility accredited by the Association for the Assessment and Accreditation of Laboratory Animal Care and were approved by the Institutional Animal Care and Use Committee (protocol #1052). […] Mouse weights were monitored once a week or three times per week during drug treatment. […]

CC(=O)Nc1cccc(-n2c(=O)n(C3CC3)c(=O)c3c(Nc4ccc(I)cc4F)n(C)c(=O)c(C)c32)c1 [trametinib, N-(3-(3-cyclopropyl-5-((2-fluoro-4-iodophenyl)amino)-6,8-dimethyl-2,4,7-trioxo-3,4,6,7-tetrahydropyrido[4,3-d]pyrimidin-1(2H)-yl)phenyl)acetamide]
1014 cell proliferation (1014 cells): suppressed
tumor growth (WM1366-iCas9 xenograft): delayed

From patent US20240382484A1, “COMPOSITION FOR TREATING, PREVENTING, OR AMELIORATING MELANOMA AND METHOD THEREOF” (Thomas Jefferson University, priority 2021, published 2024)
